Series [1] concerns Japanese patients with newly diagnosed ovarian cancer. Description: Phase 1 safety/tolerability: treatment-emergent adverse events, DLT, MTD, RP2D. The method, then:
This was a phase 1, open‐label, multicenter, dose‐escalation study to evaluate the tolerability, safety, PK and preliminary efficacy of oral veliparib in combination with carboplatin and weekly paclitaxel in Japanese patients with ovarian cancer. Patients were assigned to treatment with veliparib at either 100 mg (dose level 1 [DL1]) or 150 mg (DL2) b.i.d. on days 1–21 of a 21‐day cycle. […] After completion of cycle 1, subsequent cycles were not begun until the patient's ANC was ≥1500/mm^3 and the platelet count ≥100 000/mm^3. Patients with ANC 1000–1499/mm^3 or platelet count 75 000–99 000/mm^3 (or both) could proceed to the next cycle of therapy with a predefined dose modification (Table S1). On day 8 or 15 of each cycle, another dose modification guideline was applied (Table S2). The patient's participation in the study was discontinued upon the third occurrence of hematologic toxicity that required dose modification per protocol. Treatment could be postponed for up to 21 days because of toxicity; longer toxicity‐related delay led to study discontinuation. Reduction of carboplatin and paclitaxel doses was permitted based on the toxicity observed (Table S3), which could necessitate discontinuation of either agent. At the investigator's discretion, patients who discontinued veliparib were […] to discontinue the study but could continue to receive carboplatin and paclitaxel as standard of care. The trial was conducted in accordance with good clinical practice, the International Conference on Harmonization guidelines, and the 1964 Declaration of Helsinki and its later amendments; written informed consent was obtained from all patients before study enrollment.
Dose escalation proceeded according to a 3 + 3 design to determine dose‐limiting toxicities (DLT), the maximum tolerated dose (MTD) and the RP2D. A minimum of 3 patients were enrolled at DL1. If none of these patients experienced a DLT, 3 more patients would be enrolled at DL2. If 1 or 2 patients experienced a DLT at DL1, 3 more patients would be enrolled at the same dose level. If ≤2 of 6 patients experienced a DLT, dose escalation would proceed to DL2. If ≥3 patients experienced a DLT, dose escalation would be stopped, with the following exceptions: (i) if 3 of 6 patients at DL1 experienced DLT, 3 more patients would enter the DL and the cohort be expanded to 9 patients, depending on a review of the specific DLT observed and discussion with the investigators; and (ii) if 3 of 9 patients at DL1 experienced DLT, escalation to DL2 would proceed, but if >3 of 9 patients experienced DLT, then dose escalation would stop.
Dose‐limiting toxicities were determined based on events that occurred during the DLT evaluation period from day 1 of cycle 1 through pre‐dosing on day 1 of cycle 2. A patient was considered to be evaluable for DLT assessment if they had completed cycle 1 with the assigned regimen or had prematurely discontinued cycle 1 or experienced an adverse event (AE) related to veliparib. AE that occurred after the DLT evaluation period were considered in dose‐escalation decisions and tolerability assessment. The MTD was defined as the highest dose level at which ≤2 of 6 or ≤3 of 9 patients experienced a DLT. The RP2D was determined on the basis of assessment of the observed toxicities, the MTD, the overall safety profile of the regimen, and the PK of veliparib. In the event that the MTD was not reached, the RP2D was to be defined on the basis of safety and PK data and would not be higher than the maximum administered dose. Any of the following events that were considered to have a reasonable possibility of being related to the administration of veliparib were defined as DLT: grade 4 neutropenia lasting more than 7 days; grade 4 thrombocytopenia; febrile neutropenia; any grade ≥3 nonhematologic toxicities except nausea, vomiting and diarrhea; and transient metabolic toxicities such as glucose changes, hypokalemia or hypophosphatemia.

Series [2] is described as follows: Plasma pharmacokinetics on day 1 of cycle 1 (noncompartmental). Details: AUC(0-inf): dose or concentration left out as unconfirmed. The protocol:
(§1) During the screening visit, a complete medical history (including a detailed oncology history) was collected. Study visits occurred on days 1, 8 and 15 of cycle 1 and each subsequent cycle; patients also attended for a final visit and a 30‐day follow‐up visit. AE monitoring was performed at each visit; most visits also included a physical examination and ECOG performance status evaluation. Toxicities were graded according to the NCI Common Terminology Criteria for Adverse Events version 4.03. For the determination of veliparib, carboplatin and paclitaxel PK, plasma samples were collected at multiple time points within 24 h of the first morning dose of veliparib on day 1 of cycle 1. The PK of carboplatin and paclitaxel were evaluated only with veliparib co‐administration. Values of the PK parameters of veliparib, carboplatin and paclitaxel, including the maximum observed plasma concentration (C max), time to C max (T max) and AUC, were determined by using noncompartmental methods. In addition to tumor assessment at baseline, tumor response was assessed by using the Response Evaluation Criteria In Solid Tumors (RECIST) version 1.113 every 9 weeks from day 1 of cycle 1 and at the final visit. The tumor marker cancer antigen 125 (CA‐125) was evaluated on day 1 of each cycle and at the final visit.

The subject of series [3] is non‐small cell lung cancer. Also on record: method as in PMID 26433581. Particulars: veliparib with carboplatin/paclitaxel, Japanese NSCLC patients, no more than 1 prior line of treatment; cited from earlier work.
In series [4] the test system is target lesions, ovarian cancer. Description: Tumor response by RECIST version 1.1. In kind it is in vivo, Japanese patients. The protocol:
as §1

The subject of series [5] is CA‐125. Description: Tumor marker CA-125 response (Gynecologic Cancer InterGroup definition). In kind it is in vivo, Japanese patients. The method, then: as §1
Where [6] appears, read: Total (both veliparib doses) + carboplatin/paclitaxel, N = 9, All grades.
The mark [7] stands for this setting: Total (both veliparib doses) + carboplatin/paclitaxel, N = 9, Grade 3 or 4.
Setting [8] is: all 9 patients, regardless of relation to veliparib.
The mark [9] stands for this setting: veliparib 100 mg BID + carboplatin/paclitaxel, n = 3, All grades.
Setting [10] is: veliparib 150 mg BID + carboplatin/paclitaxel, n = 6, All grades.
[11] abbreviates: veliparib dose 100 mg, day 1 of cycle 1, N 3, mean ± SD.
Setting [12] is: veliparib dose 150 mg, day 1 of cycle 1, N 6, mean ± SD.

As to `N.N.O=C([O-])C1(C(=O)[O-])CCC1.[Pt+2]` [carboplatin], the “patients needing ≥1 carboplatin dose reduction” value in series [1] (7 of 9, beginning at cycle 2, due to hematologic toxicities) is recorded as 78%. Also, the C max in series [2] (carboplatin measured as total platinum, AUC 6 mg/mL•min i.v. day 1 with veliparib, mean (SD)) is 23.3 (4.28) μg/mL. For the same molecule, the “AUC from time zero to infinity (AUC∞)” value in series [2] (carboplatin measured as total platinum, i.v. day 1 with veliparib, mean (SD)) is 5.30 (0.491) mg•min/mL.
On to `C[C@]1(c2nc3c(C(N)=O)cccc3[nH]2)CCCN1` [Veliparib], for which, in series [1] (setting [6]), the “Nail disorder, TEAE” value is reported as 2 (22) n (%); the “Nausea, TEAE” value is 6 (67) n (%); the “Neutropenia (including neutrophil count decreased), TEAE” value is 9 (100) n (%); the “Peripheral sensory neuropathy (including neuropathy peripheral), TEAE” value is reported as 7 (78) n (%). Further, in series [1] (setting [6]), the “Rash, TEAE” value is 2 (22) n (%); the “Stomatitis, TEAE” value is on record as 2 (22) n (%); the “Thrombocytopenia (including platelet count decreased), TEAE” value is on record as 5 (56) n (%); the “Vomiting, TEAE” value is recorded as 4 (44) n (%). Further, in series [1] (setting [7]), the “Alopecia, TEAE” value is reported as 0 n (%); the “Anemia, TEAE” value was 5 (56) n (%); the “Any AE, TEAE” value is given as 7 (78) n (%); the “Arthralgia, TEAE” value is 0 n (%). For the same molecule, in series [1] (setting [7]), the “Constipation, TEAE” value is 0 n (%); the “Decreased appetite, TEAE” value is listed as 0 n (%); the “Dry skin, TEAE” value is given as 0 n (%); the “Dysgeusia, TEAE” value is 0 n (%). Besides, in series [1] (setting [7]), the “Leukopenia (including white blood cell count decreased), TEAE” value is on record as 4 (44) n (%); the “Malaise, TEAE” value is reported as 0 n (%); the “Nail disorder, TEAE” value was 0 n (%); the “Nasopharyngitis, TEAE” value is reported as 0 n (%). Also, in series [1] (setting [7]), the “Nausea, TEAE” value is reported as 0 n (%); the “Neutropenia (including neutrophil count decreased), TEAE” value is given as 7 (78) n (%); the “Peripheral sensory neuropathy (including neuropathy peripheral), TEAE” value was 0 n (%); the “Rash, TEAE” value is 0 n (%). Further, in series [1] (setting [7]), the “Stomatitis, TEAE” value was 0 n (%) and the “Vomiting, TEAE” value is listed as 0 n (%). Besides, the “AE that led to death” value in series [1] (all 9 patients) is given as “no AE that led to death”. In addition, in series [1] (setting [8]), the “alopecia, TEAE of any grade” value came to 89%; the “anemia, TEAE of any grade” value was 67%; the “anemia, grade 3 or 4 TEAE” value came to 56%; the “malaise, TEAE of any grade” value worked out at 67%. Besides, in series [1] (setting [8]), the “nausea, TEAE of any grade” value is on record as 67% and the “neutropenia, TEAE of any grade” value is on record as 100%. For the same molecule, in series [1] (female, human, in vivo), the “neutropenia, grade 3 or 4 TEAE” value is 78% and the “peripheral sensory neuropathy, TEAE of any grade” value was 78%. Also, the “recommended phase 2 dose (RP2D)” value in series [1] (in combination with carboplatin and weekly paclitaxel, determined on safety and PK data) is on record as 150 mg b.i.d. For the same molecule, in series [1] (in vivo), the “dose‐limiting toxicities (DLT)” value is on record as “No DLT were observed at any dose level” and the veliparib dose reduction entry is “No patient needed a veliparib dose reduction”. Further, the “veliparib discontinued because of a TEAE” value in series [1] (overall, 6 of 9 patients) turned out to be 67%. Besides, in series [1] (setting [9]), the “Alopecia, TEAE” value is given as 3 (100) n (%) and the “Anemia, TEAE” value is 2 (67) n (%). Also, in series [1] (setting [10]), the “Alopecia, TEAE” value is recorded as 5 (83) n (%) and the “Anemia, TEAE” value is reported as 4 (67) n (%). Moreover, the “maximum tolerated dose (MTD) of the regimen” value in series [1] (veliparib up to 150 mg b.i.d. with carboplatin and weekly paclitaxel) is recorded as “not reached”. Moreover, the objective response rate in series [3] is 55%. For the same molecule, the “PK interaction between veliparib and carboplatin or paclitaxel” value in series [2] (cross‐study comparison) was “no PK interaction”. Further, in series [2] (setting [11]), the “AUC0–8/dose” value came to 37.2 ± 4.37 ng·h/mL/mg and the C max/dose turned out to be 9.73 ± 1.63 ng/mL/mg. Besides, in series [2] (setting [12]), the “AUC0–8/dose” value was determined as 36.7 ± 8.10 ng·h/mL/mg and the C max/dose is recorded as 7.19 ± 1.16 ng/mL/mg. Moreover, the objective response rate in series [4] (5 assessed patients, veliparib plus carboplatin and paclitaxel) came to 100%. The same molecule had a partial response in series [4] (both cohorts, of 5 assessed patients) of 4 patients. Besides, in series [4] (overall, range −100.00% to −50.00%), the “median best percentage change from baseline in the sum of target lesions” value is recorded as −53.51%. Further, in series [4] (veliparib 100 mg b.i.d.), the partial response was 1 patients. In addition, the complete response result in series [4] (veliparib 100 mg b.i.d. cohort, of 5 assessed patients) is reported as “One patient had a complete response”. For the same molecule, in series [4] (veliparib 100 mg b.i.d. cohort, range −100.00% to −53.51%), the “median best percentage change from baseline in the sum of target lesions” value is −76.75%. The molecule also came in with a partial response in series [4] (veliparib 150 mg b.i.d.) of 3 patients. The “median best percentage change from baseline in the sum of target lesions” value in series [4] (veliparib 150 mg b.i.d. cohort, range −90.29% to −50.00%) is recorded as −51.57%. For the same molecule, the “CA‐125 response (Gynecologic Cancer InterGroup definition)” value in series [5] (8 of 9 patients) came to 89%. For the same molecule, the “median best percentage change from baseline in CA‐125” value in series [5] (overall, range −99.79% to −34.96%) is reported as −89.33%. Moreover, the “median best percentage change from baseline in CA‐125” value in series [5] (veliparib 100 mg b.i.d. cohort, range −97.31% to −65.25%) is listed as −94.24%. Besides, the “median best percentage change from baseline in CA‐125” value in series [5] (veliparib 150 mg b.i.d. cohort, range −99.79% to −34.96%) is reported as −84.87%.
One may read the AUC(0-inf) as the area under the concentration-time curve extrapolated to infinity. As a reminder, the Cmax is the peak of the concentration-time curve. Consider `CC(=O)O[C@H]1C(=O)[C@@]2(C)[C@H]([C@H](OC(=O)c3ccccc3)[C@]3(O)C[C@H](OC(=O)[C@H](O)[C@@H](NC(=O)c4ccccc4)c4ccccc4)C(C)=C1C3(C)C)[C@]1(OC(C)=O)CO[C@@H]1C[C@@H]2O` [paclitaxel], for which, in series [2] (female, human, in vivo), the AUC(0-inf) worked out at 5320 ng·h/mL and the Cmax came out at 3300 ng/mL.

Values taken from PMC5665762, “Phase 1 study of veliparib with carboplatin and weekly paclitaxel in Japanese patients with newly diagnosed ovarian cancer” (Cancer Science, 2017).
